According to patent US12583900B2, “Peptide conjugates and methods of use” (The Scripps Research Institute, priority 2019, dated 2026):

Experiments:
Assay type in all cases: in vivo, mouse
DIO mice (C57BL/6) = assay: DIO mice study, daily s.c. dosing 21 days, plasma and liver analyses (28-week old)
Source text: All animal care and experimental procedures were approved by the Institutional Animal Care and Use Committee (IACUC) of California Institute for Biomedical Research (Calibr) and strictly followed the NIH guidelines for humane treatment of animals. The results are expressed as means S.E., and the data were compared using the unpaired Student's t test. Where appropriate, data were compared using repeated measures or one-way analysis of variance, followed by the Student-Newman-Keuls post hoc test. Incremental area under the curve (AUC) analyses for plasma glucose was calculated using GraphPad Prism 6.
DIO mice (C57BL/6, male, 28-week old) were randomized based on their body weight and were treated with daily subcutaneous injections of peptide or vehicle (n=7/group). Body weight and food intake were monitored daily throughout the study. At the end of the experiment, mice were sacrificed, and visceral fat mass were weighed. Collected plasma was used for cholesterol level determination according to the manufacturer's guide (cholesterol assay kit, Abcam, Cambridge, England) and triglyceride level using a triglyceride colorimetric assay kit (Cayman chemical, Ann Arbor, Michigan).
Collected plasma was used for cholesterol level determination according to the manufacturer's guide (cholesterol assay kit, Abcam, Cambridge, England). Briefly, plasma was diluted using cholesterol assay buffer and then reacted with the same volume of reaction mix containing cholesterol assay buffer, cholesterol probe, enzyme mix and cholesterol esterase. After incubation at 37° C. for 1 hour, the absorbance at 560 nm was measured using an Envision multilabel plate reader (PerkinElmer, Waltham, MA). Subsequently, the concentration of cholesterol in plasma was calculated according to a standard curve.
Collected plasma was used for triglyceride level determination using a triglyceride colorimetric assay kit (Cayman chemical, Ann Arbor, Michigan). 5 μL of plasma samples or standard were plated into a 384 well plate and followed by adding 75 μL of diluted enzyme buffer to each well. The mixture was incubated at room temperature for 15 min, and the absorbance was read at 560 nm using an Envision plate reader (PerkinElmer, Waltham, MA). The concentration of triglyceride in plasma was calculated using a standard curve.
Terminal serum analytes including total cholesterol, triglyceride, alanine aminotransferase (ALT), aspartate aminotransferase (AST), alkaline phosphatase (ALP) were determined by Alfa Wassermann Vet Axcel® clinical analyzer. Hepatic triglycerides were measured in liver homogenates generated with a colorimetric triglyceride kit (Cayman Chemical). Paraformaldehyde-fixed liver were paraffin-embedded, sectioned and stained with hematoxylin-eosin and Picro-Sirius red by HistoTox Labs (Boulder, CO). All histological assessment (steatosis, fibrosis scoring) were performed by a certified histopathologist blind to treatment (HistoTox Labs) based on classification outlined by Kleiner et al.^3

C57BL/6J mice [1] = assay: Oral glucose tolerance test 6 h, 48 h, 96 h post dose (GLP-1R/GCGR agonists); details: 48 h after administration
Protocol: C57BL/6J mice (n=6/group) between 10-12 weeks old were fasted overnight and then administrated with 5 mL/kg of each peptide in PBS (pH=8.2) by s.c. route. After 6 hours, mice were orally or intraperitoneally administrated with 2 g of glucose solution per kg body weight and their tail blood glucose levels were measured before (0 min) and after glucose challenge for 2 hours. Follow up OGTT were also performed at 48 h, and 96 h post-original dose in same mice after overnight fast.
The efficacy of the GLP-1R/GCGR dual agonist 135 was then evaluated in an oral glucose tolerance test (OGTT) in wilt type mice.

C57BL/6J mice [2] = assay: Oral glucose tolerance test 2 h, 72 h, 96 h, […] post dose (GLP-1R/GIPR agonists)
Protocol: C57BL/6J mice (n=6/group) between 10-12 weeks old were fasted overnight and then administrated with 5 mL/kg of each peptide in PBS (pH=8.2) by s.c. route. […]

CCCCCCCCCCCCCCCC(=O)N[C@@H](CCC(=O)NCCCC[C@H](NC(=O)[C@H](CC(=O)O)NC(=O)[C@H](CO)NC(=O)[C@@H](NC(=O)[C@H](Cc1ccccc1)NC(=O)[C@@H](NC(=O)CNC(=O)[C@H](CCC(N)=O)NC(=O)[C@H](CO)NC(=O)[C@@H](N)Cc1c[nH]cn1)[C@@H](C)O)[C@@H](C)O)C(=O)N[C@@H](CO)C(=O)N[C@@H](CCC(=O)O)C(=O)N[C@@H](Cc1ccc(O)cc1)C(=O)N[C@@H](CC(C)C)C(=O)N[C@@H](CC(=O)O)C(=O)N[C@@H](CO)C(=O)N[C@@H](CCC(=O)O)C(=O)N[C@@H](CCCNC(=N)N)C(=O)N[C@@H](C)C(=O)N[C@@H](CCCNC(=N)N)C(=O)N[C@@H](CC(=O)O)C(=O)N[C@@H](Cc1ccccc1)C(=O)N[C@H](C(=O)N[C@@H](C)C(=O)N[C@@H](Cc1c[nH]c2ccccc12)C(=O)N[C@@H](CC(C)C)C(=O)N[C@@H](CCC(=O)O)C(=O)N[C@@H](C)C(=O)NCC(=O)NCC(=O)O)C(C)C)C(=O)O [cotadutide]
plasma glucose excursions in a fasted state (DIO mice (C57BL/6); day 21): significant decrease
liver to bodyweight ratio (DIO mice (C57BL/6); vs vehicle): significantly decreased
liver triglyceride level (DIO mice (C57BL/6); vs vehicle): significantly decreased
liver weight (DIO mice (C57BL/6); vs vehicle): significantly decreased
glucose handling in OGTT (C57BL/6J mice [1]): did not exhibit any improvement over the vehicle

semaglutide
food consumption over 20 days vs vehicle (DIO mice (C57BL/6); DIO mice, daily s.c.): reduction
total bodyweight and percent change from initial bodyweight over 21 days (DIO mice (C57BL/6); DIO mice, daily s.c.): decrease
plasma glucose excursions in a fed state (DIO mice (C57BL/6); day 20): significant decrease
OGTT glucose levels over time and AUC (DIO mice (C57BL/6); day 21): significant decrease
plasma glucose excursions in a fasted state (DIO mice (C57BL/6); day 21): significant decrease
plasma level of ALP (DIO mice (C57BL/6); terminal, vs vehicle): significantly reduced
plasma level of ALT (DIO mice (C57BL/6); terminal, vs vehicle): significantly reduced
plasma level of cholesterol (DIO mice (C57BL/6); terminal, vs vehicle): significantly reduced
plasma level of triglycerides (DIO mice (C57BL/6); terminal, vs vehicle): significantly reduced
fat weight (DIO mice (C57BL/6); vs vehicle): significantly reduced
liver to bodyweight ratio (DIO mice (C57BL/6); vs vehicle): significantly decreased
liver triglyceride level (DIO mice (C57BL/6); vs vehicle): significantly decreased
liver weight (DIO mice (C57BL/6); vs vehicle): significantly decreased
steatosis grade (DIO mice (C57BL/6); vs vehicle): reduced
OGTT blood glucose levels as measured by the AUC vs vehicle (C57BL/6J mice [2]; 2 hours post dose): significant decrease
fasted glucose levels vs vehicle (C57BL/6J mice [2]; 2 hours post treatment): significant decrease
OGTT blood glucose levels as measured by the AUC vs vehicle (C57BL/6J mice [2]; 72 hours post dose): significant decrease
fasted glucose levels vs vehicle (C57BL/6J mice [2]; 72 hours post treatment): significant decrease
OGTT blood glucose levels as measured by the AUC vs vehicle (C57BL/6J mice [2]; 96 hours post dose): significant decrease
fasted glucose levels vs vehicle (C57BL/6J mice [2]; 96 hours post treatment): significant decrease
OGTT blood glucose levels as measured by the AUC vs vehicle (C57BL/6J mice [2]; […] post dose): significant decrease
fasted glucose levels vs vehicle (C57BL/6J mice [2]; […] post treatment): significant decrease
